# Assay results from patent US20060205642A1, “Oral methods of treatment using proANF peptides” (priority 2005, published 2006).
# Entries after “also recorded” stand apart in the source; their conditions may differ.
# What was measured:
# porcine aortas = assay: Vasodilation of porcine aortic strips preconstricted with 0.3 micromolar phenylephrine
# Description: 30 Kg pigs are sacrificed, and aortic strips are harvested. The strips are attached to F-60 transducer (Narco-BioSystems, Houston, Tex.) and attached to a physiography (Narco-BioSystems) while being submerged in a muscle tissue bath comprising a Krebs Ringer solution at 37° C., with 95% O2-5% CO2, bubbled through the bath. Percentage vasodilation is measured versus time after preconstriction with 0.3 micromolar phenylephrine. […] (Vesely et al., Biochem. Biophys. Res. Commun. 148:1540-1548, 1987).
# [1] = system: particulate guanylate cyclase; assay: Particulate guanylate cyclase activity in the kidney; assay type: biochemical; conditions: 1 μM; whole kidney homogenates, renal cortical and medullary membranes, isolated distal nephrons
# Description: Testing is also carried out to determine biologic effects of these peptides by measuring their effects on particulate guanylate activity in the kidney.
# [2] = system: renal medullary Na+-K+-ATPase; assay: Inhibition of renal medullary Na+-K+-ATPase activity (FIG. 9); assay type: biochemical; conditions: 10^-11 M, n=6, ANOVA
# From the text: FIG. 9. Inhibition of renal medullary Na+-K+-ATPase activity by proANF 79-98 (kaliuretic peptide), proANF 1-30 (long acting natriuretic peptide), proANF 31-67 (vessel dilator), and angiotensin II at their […] concentrations.
# [3] = Infusion into healthy human subjects; assay type: in vivo; conditions: healthy humans; for potassium excretion: 100 ng/kg body wt
# Description: Infusion of these peptides into healthy human subjects was performed as follows: Human pro-ANF 1-30, pro-ANF 31-67, and pro-ANF 79-98, and hANF (i.e., pro-ANF 99-126, were synthesized by Peninsula Laboratories (Belmont, Calif.). High pressure liquid chromatography (HPLC) analysis was performed on a sample of each of the four peptides to ensure purity. The peptides were dissolved in a sterile 0.9% saline solution to a concentration of 100 μg/ml and dispensed in 2 and 5 ml aliquots into sealed sterile vials. At the time of dispensing, randomly selected vials were tested for pyrogens and sterility. Prior to labeling the vials, the actual peptide content of the dispensed solution were determined by direct radioimmunoassay to account for any possible absorption of the respective peptides to the walls of the vials. All vials were then stored at −80° C. until thawed for individual study.
# Normal healthy subjects were chosen on the basis of age (between 20 and 50 years), physical examination and biochemical screenings. The subjects consumed their normal diets prior to testing. The subjects fasted overnight and were tested in the morning in the seated position. Intravenous catheters were placed bilaterally for the administration of pro-hANF 1-30, pro-hANF 31-67, pro-hANF 79-98 and hANF (pro-hANF 99-126) and for blood sampling. After completion of a 45-minute equilibration period, there were three […] phases of the study: baseline, experimental infusion (60 minutes) and recovery (3 hours). The baseline phase consisted of two 30 minute urine collection periods, the experimental phase consisted of three 20 minute urine and plasma collection periods, and the recovery phase consisted of two 30 minute urine and plasma collection periods each hour for three hours post-infusion. Urine output was replaced on a milliliter per milliliter basis throughout the study by administering oral water or orange juice. Urine samples were obtained by voiding at the designated collection periods.
# The 36 subjects were divided into 6 groups. One group (i.e., the control group) received a placebo infusion of 0.9% sodium chloride during the experimental infusion phase. […] The four remaining groups of six subjects each received human pro-hANF 1-30, pro-hANF 31-67, pro-hANF 79-98 and HANF. The four groups received the peptides by continuous infusion at the rate of 0.1 μg/kg per minute. The volume administered per hour during the experimental infusion phase was 10 ml for all four peptides and the placebo. All infusions were given by a constant-rate infusion pump, with the final concentrations of prohANFs adjusted for the subjects' body weight. The subjects heart rate and cuff blood pressure were taken at 5 minute intervals throughout the study. The excreted urine was analyzed for sodium concentration.
# [4] = system: prostaglandin E2 (PGE2) synthesis; assay: Prostaglandin E2 synthesis (FIG. 8); assay type: biochemical; conditions: n=6, ANOVA and Duncan's MRT
# [5] = Infusion into human subjects with Class III NYHA congestive heart failure; assay type: in vivo, humans
# Description: Human proANF's 1-30, 31-67, 79-98, and 99-126 (i.e., ANF) were infused into human subjects with Class III New York Heart Association congestive heart failure (CHF). An identical protocol to that used in example V where these peptides were infused into healthy human subjects was utilized. (See Attachment C and F for a detailed description of this protocol). The human subjects with congestive heart failure received an identical dose (0.1 μg/kg body wt/minute for 60 minutes) that the healthy human subjects received. […] This striking urine output secondary to proANF 31-67 was significant at P<0.0001 compared to the pre-infusion output of the congestive heart failure subjects (n=6).
# [6] = system: particulate guanylate cyclase; assay: Cyclic GMP / particulate guanylate cyclase activation in cultured smooth muscle cells and porcine aorta; assay type: cell-based
# [7] = Rat clearance model (diuresis and salt excretion); assay type: in vivo, Munich-Wistar rats; conditions: for FENa, fractional excretion of sodium / UNa, urinary sodium / UNaV, urinary sodium excretion rate / V, urine flow rate: means ± SE
# Description: The same three peptides and ANF from Example I are tested using the rat clearance model. Six control rats and six experimental Munich-Wistar rats, each weighing 150-200 grams, are used for each peptide, with catheters being placed in both jugular veins and in the femoral artery. The ureters are cannulated for simultaneous urine collections with femoral artery blood collections.
# After inserting the catheters, a stabilization of one hour is allowed. A 10 μg/kg bolus of each of the respective human sequences of the peptides is given via the jugular vein to six experimental rats followed by a sustaining infusion of 0.1 μg/kg/min for 60 minutes. Blood and urine samples are collected at 20 minute intervals during this 60 minute infusion. In both the control and experimental animals, hematocrits and plasma sodium values remained at the same levels pre- and post-infusion while blood pressure decreased with each of these peptides (see Attachment B).
# [8] = A, control period (before peptide)
# [9] = B, first 60-minute experiment period, 10 μg/kg bolus then 0.1 μg/kg/min
# [10] = C, second 60-minute experimental period
substance,measurement,setting,value
H-SSDRSALLKSKLRALLTAPR-OH [proANF 79-98],increase in cyclic GMP levels over baseline levels associated with vasodilation,porcine aortas,four-to-five fold
same,particulate guanylate cyclase activity,[1],enhance
same,inhibition of renal medullary Na+-K+-ATPase activity,[2],significant at P<0.01
same,potassium excretion,[3],significant (P<0.05)
same,increase in urine volume (in words),"[3]; 100 ng/kg body wt per minute for 1 hour i.v., n=6, ANOVA",significant
same,sodium excretion (in words),"[3]; 100 ng/kg body wt per minute for 60 minutes, vs baseline, listed as ProANF 79-98",does not have natriuretic effects in healthy humans
same,systolic and diastolic blood pressures,"[3]; 100 ng/kg body wt per minute i.v. for 60 min, n=6",significant
same,potassium excretion,[3]; listed as ProANF 79-98,strongest stimulator of potassium excretion of any of the atrial peptides; also recorded: significant (P<0.01) enhancer of potassium excretion
same,increase in urine flow,[3]; infusion,2 fold
same,prostaglandin E2 (PGE2) synthesis,[4],increase prostaglandin E2 (PGE2) synthesis
same,hypotension,[5]; CHF patients,None became hypotensive
same,enhancement of sodium excretion,"[5]; CHF subjects, 100 ng/kg body weight/min for 60 minutes",3 fold
same,increase of urine flow (maximal),"[5]; NYHA class III CHF, 100 ng/kg body weight/min i.v. for 60 minutes, P<0.001",4 fold
same,effects in persons with CHF compared to healthy individuals,[5]; diuretic and natriuretic effects,not blunted in persons with CHF but rather are increased compared to healthy individuals
same,cyclic GMP levels in cultured smooth muscle cells,[6]; cultured smooth muscle cells,increase cyclic GMP levels
same,concentration of maximal activation of guanylate cyclase activity,[6]; porcine aorta and isolated smooth muscle cells,about 1 μM
same,EC50,"[6]; porcine aorta and isolated smooth muscle cells, read-out: half maximal activation (ED5o) of guanylate cyclase",~10 nM
same,"FENa, fractional excretion of sodium",[7]; [8],0.030 ± 0.024%
same,"UNa, urinary sodium",[7]; [8],42.27 ± 24.68 meq/1
same,"UNaV, urinary sodium excretion rate",[7]; [8],90.88 ± 77.76 μeq · min^−1 · g kidney wt^−1
same,"V, urine flow rate",[7]; [8],2.62 ± 0.70 μl · min^−1 · g kidney wt^−1
same,"V, urine flow rate","[7]; B, first 60-minute experiment period, 10 μg/kg bolus then 0.1 μg/kg/min via jugular vein",4.75 ± 1.57 μl · min^−1 · g kidney wt^−1
same,"FENa, fractional excretion of sodium",[7]; [9],0.200 ± 0.152%
same,"UNa, urinary sodium",[7]; [9],63.30 ± 22.11 meq/1
same,"UNaV, urinary sodium excretion rate",[7]; [9],363.98 ± 261.85 μeq · min^−1 · g kidney wt^−1
same,"V, urine flow rate","[7]; C, second 60-minute experimental period, 10 μg/kg bolus then 0.1 μg/kg/min",5.16 ± 1.04 μl · min^−1 · g kidney wt^−1
same,"FENa, fractional excretion of sodium",[7]; [10],0.368 ± 0.273%
same,"UNa, urinary sodium",[7]; [10],92.53 ± 29.17 meq/1
same,"UNaV, urinary sodium excretion rate",[7]; [10],564.22 ± 315.48 μeq · min^−1 · g kidney wt^−1
same,potassium excretion,[7]; rat clearance model,very significant stimulator of potassium excretion
same,sodium excretion (in words),[7]; rat clearance model,does not significantly increase sodium excretion
